Source: patent US10370371B2, “Substituted pyrimidine Bmi-1 inhibitors” (PTC Therapeutics, Inc., priority 2013, dated 2019)

The compounds below were run on Bmi-1 protein (assay: Sandwich ELISA Assay (Bmi-1 protein level in HT-1080 cells)).
Assay type: cell-based
Method: Cell Seeding and Compound Treatment (Day 1):
HT-1080 cells were seeded at 8000 cells/well (50 μL) in 96-well tissue culture plates. After the cells became adherent (3-4 hours), 2× diluted stocks of test compounds in 50 μL DMEM containing 1% DMSO (final DMSO concentration was 0.5%) were added and the plates were incubated at 37° C. under 5% CO2 for 40-48 hours.
ELISA Plate First Antibody Preparation (Day 2):
The First Antibody (Millipore Mouse, monoclonal to mouse Bmi-1, clone F6, catalog #05-637) diluted to 2 μg/mL in PBS was added (100 μL) to each well of a Nunc MaxiSorp 96-well ELISA plate. The plate was covered with a plate seal and allowed to stand overnight.
Cell Lysate Preparation (Day 3):
Fresh Lysis buffer (1×) was prepared on the day of the assay as follows: 1 mM EDTA, 150 mM NaCl, 0.5% Triton-X 100, 10 mM NaF, 20 mM B-Glycerophosphate, 1 mM DTT (in PBS, pH 7.2-7.4) and HALT protease inhibitor cocktail (1×) (Pierce #78410).
Lysis Buffer (1×, 40 μL) was added to each well and the plate was shaken for 5-10 minutes on an orbital shaker to allow cell lysis, then diluent (1% BSA in PBS in 0.5% NP40) (100 μL) was added to each well.
A standard curve was prepared at the following Bmi-1 concentrations: 8000, 4000, 2000, 1000, 500, 250, 125 and 0 pg/mL. The Bmi-1 Recombinant Protein Standard (Novus Biologicals PCGF4 Recombinant Protein (P01), catalog # H00000648-P01) used to prepare the standard curve was stored at −80° C. On first thaw, the Recombinant Protein Standard was diluted to 10 μg/μL in Blocking Buffer (1% BSA in PBS; BSA: Fisher Scientific Catalog #1600-100). Aliquots were taken and refrozen at −80° C. The aliquots may be kept at 4° C. and reused after first thaw, but only within 1-2 weeks. The Recombinant Protein Standard contains a GST-fusion tag that appears at approximately 70 Kda on Western Blot.
The prepared ELISA plate was washed 3× with Wash Buffer (0.05% Tween-20 in PBS). The final wash was removed from the plate and the plate was blotted dry. Blocking Buffer (300 μL) (1% BSA in PBS) was added to each well. The plate was covered with a plate seal and incubated at room temperature for 1 hour. The blocked plate was washed 3× with Wash Buffer, then the final wash was removed and the plate was blotted dry. The previously prepared samples and standards were added (100 μL/well) and the plate was covered with a plate seal and incubated at 4° C. overnight.
The prepared ELISA plate was removed from incubation and allowed to stand at room temperature for 30 minutes, then washed and blotted dry. The Second Antibody (Cell Signaling Rabbit anti-Bmi-1, Cat#2830) diluted to 1:600 in Blocking Buffer was added (100 μL) to each well, except as needed for background control wells. The plate was covered with a plate seal and incubated for 1.5 hrs at room temperature.
The ELISA plate was washed and blotted dry as previously described. The Third Antibody (Cell Signaling HRP conjugated anti-rabbit IgG (CellSignaling, Cat#:7074) diluted to 1:300 in Blocking Buffer was added (100 μL) to each well, except as needed for background control wells. The plate was incubated for 1 hr at room temperature.
The plate was washed and blotted dry, then a previously prepared TMB substrate (TMB substrate kit, Pierce catalog #34021) (prepared by mixing kit reagents 1:1) (100 μL) was added per well. The plate was incubated for 20-30 minutes at room temperature in the dark, then Stop Solution (2 M sulfuric acid in water) (50 μL) was added per well. The plates were read at OD450 (experimental) and OD570 (reference).
With `Cc1nc2ccc(F)cn2c1-c1cc(N)nc(Nc2ccc(C(F)(F)F)cc2)n1` [Cpd 1, 6-(6-fluoro-2-methylimidazo[1,2-a]pyridin-3-yl)-N^2-[4-(trifluoromethyl)phenyl]pyrimidine-2,4-diamine] the EC50 was 1 to 10 nM. `Cc1nn(C)c(C)c1-c1cc(N)nc(Nc2ccc(C(F)(F)F)cc2)n1` [Cpd 3, N^2-[4-(trifluoromethyl)phenyl]-6-(1,3,5-trimethyl-1H-pyrazol-4-yl)pyrimidine-2,4-diamine] showed an EC50 of 1 to 10 nM. For `Cc1nc2ccc(F)cc2n1-c1cc(N)nc(Nc2ccc(C(F)(F)F)cc2)n1` [Cpd 4, 6-(6-fluoro-2-methyl-1H-benzimidazol-1-yl)-N^2-[4-(trifluoromethyl)phenyl]pyrimidine-2,4-diamine], the EC50 was 10 to 100 nM. `Cc1nc2ccccc2n1-c1cc(Cl)nc(Nc2ccc(C(F)(F)F)cc2)n1` [Cpd 6, 4-chloro-6-(2-methyl-1H-benzimidazol-1-yl)-N-[4-(trifluoromethyl)phenyl]pyrimidin-2-amine] was tested, and the EC50 was 100 to 3000 nM. `Cc1nc2ccccc2n1-c1cc(N)nc(Nc2ccc(C(F)(F)F)cc2)n1` [Cpd 7, 6-(2-methyl-1H-benzimidazol-1-yl)-N^2-[4-(trifluoromethyl)phenyl]pyrimidine-2,4-diamine] showed an EC50 of 10 to 100 nM. `Cc1nc2ccccc2n1-c1cc(Cl)nc(Nc2ccc(C(F)(F)F)c(F)c2)n1` [Cpd 8, 4-chloro-N-[3-fluoro-4-(trifluoromethyl)phenyl]-6-(2-methyl-1H-benzimidazol-1-yl)pyrimidin-2-amine] showed an EC50 of 100 to 3000 nM. `Nc1cc(-c2c(C3CC3)nc3ccc(F)cn23)nc(Nc2ccc(OC(F)F)c(F)c2)n1` [Cpd 9, 6-(2-cyclopropyl-6-fluoroimidazo[1,2-a]pyridin-3-yl)-N^2-[4-(difluoromethoxy)-3-fluorophenyl]pyrimidine-2,4-diamine] showed an EC50 of 1 to 10 nM. For `Cc1nc2ccc(F)cc2n1-c1cc(N)nc(Nc2ccc(OC(F)F)c(F)c2)n1` [Cpd 10, N^2-[4-(difluoromethoxy)-3-fluorophenyl]-6-(6-fluoro-2-methyl-1H-benzimidazol-1-yl)pyrimidine-2,4-diamine], the EC50 was 10 to 100 nM. For `Cc1nc2ccccc2n1-c1cc(N)nc(Nc2ccc(C(F)(F)F)c(F)c2)n1` [Cpd 13, N^2-[3-fluoro-4-(trifluoromethyl)phenyl]-6-(2-methyl-1H-benzimidazol-1-yl)pyrimidine-2,4-diamine], the EC50 was 100 to 3000 nM. Work on `Cc1nc2ccccc2n1-c1cc(N)nc(Nc2ccc(OC(F)F)c(F)c2)n1` [Cpd 14, N^2-[4-(difluoromethoxy)-3-fluorophenyl]-6-(2-methyl-1H-benzimidazol-1-yl)pyrimidine-2,4-diamine] yielded an EC50 of 10 to 100 nM. Compound `Cc1nc2ccccc2n1-c1cc(NCCO)nc(Nc2ccc(C(F)(F)F)cc2)n1` [Cpd 15, 2-{[6-(2-methyl-1H-benzimidazol-1-yl)-2-{[4-(trifluoromethyl)phenyl]amino}pyrimidin-4-yl]amino}ethanol] has an EC50 of 100 to 3000 nM. `Cc1nc2ccccc2n1-c1cc(NCCO)nc(Nc2ccc(C(F)(F)F)c(F)c2)n1` [Cpd 16, 2-{[2-{[3-fluoro-4-(trifluoromethyl)phenyl]amino}-6-(2-methyl-1H-benzimidazol-1-yl)pyrimidin-4-yl]amino}ethanol] gave an EC50 of 100 to 3000 nM. `Cc1nc2ccccc2n1-c1cc(NCCO)nc(Nc2ccc(OC(F)F)c(F)c2)n1` [Cpd 17, 2-{[2-{[4-(difluoromethoxy)-3-fluorophenyl]amino}-6-(2-methyl-1H-benzimidazol-1-yl)pyrimidin-4-yl]amino}ethanol] was tested, and the EC50 was 100 to 3000 nM. `Cc1nc2cc(F)c(F)cc2n1-c1cc(Cl)nc(Nc2ccc(C(F)(F)F)cc2)n1` [Cpd 18, 4-chloro-6-(5,6-difluoro-2-methyl-1H-benzimidazol-1-yl)-N-[4-(trifluoromethyl)phenyl]pyrimidin-2-amine] gave an EC50 of 100 to 3000 nM. Compound `Cc1nc2cc(F)c(F)cc2n1-c1cc(Cl)nc(Nc2ccc(C(F)(F)F)c(F)c2)n1` [Cpd 19, 4-chloro-6-(5,6-difluoro-2-methyl-1H-benzimidazol-1-yl)-N-[3-fluoro-4-(trifluoromethyl)phenyl]pyrimidin-2-amine] has an EC50 of 100 to 3000 nM. In the case of `Cc1nc2cc(F)c(F)cc2n1-c1cc(N)nc(Nc2ccc(C(F)(F)F)cc2)n1` [Cpd 20, 6-(5,6-difluoro-2-methyl-1H-benzimidazol-1-yl)-N^2-[4-(trifluoromethyl)phenyl]pyrimidine-2,4-diamine], the EC50 is reported as 10 to 100 nM. With `Cc1nc2cc(F)c(F)cc2n1-c1cc(NCCO)nc(Nc2ccc(C(F)(F)F)cc2)n1` [Cpd 21, 2-{[6-(5,6-difluoro-2-methyl-1H-benzimidazol-1-yl)-2-{[4-(trifluoromethyl)phenyl]amino}pyrimidin-4-yl]amino}ethanol] the EC50 was 100 to 3000 nM. With `Cc1nc2ccccc2n1-c1cc(NO)nc(Nc2ccc(C(F)(F)F)cc2)n1` [Cpd 22, N^4-hydroxy-6-(2-methyl-1H-benzimidazol-1-yl)-N^2-[4-(trifluoromethyl)phenyl]pyrimidine-2,4-diamine] the EC50 was 10 to 100 nM. `CCc1nc2ccccc2n1-c1cc(N)nc(Nc2ccc(C(F)(F)F)cc2)n1` [Cpd 23, 6-(2-ethyl-1H-benzimidazol-1-yl)-N^2-[4-(trifluoromethyl)phenyl]pyrimidine-2,4-diamine] showed an EC50 of 10 to 100 nM. Compound `Cc1nc2cc(F)c(F)cc2n1-c1cc(N)nc(Nc2ccc(C(F)(F)F)c(F)c2)n1` [Cpd 24, 6-(5,6-difluoro-2-methyl-1H-benzimidazol-1-yl)-N^2-[3-fluoro-4-(trifluoromethyl)phenyl]pyrimidine-2,4-diamine] has an EC50 of 100 to 3000 nM. In the case of `Nc1cc(-c2ccnc3ccccc23)nc(Nc2ccc(C(F)(F)F)cc2)n1` [Cpd 25, 6-(quinolin-4-yl)-N^2-[4-(trifluoromethyl)phenyl]pyrimidine-2,4-diamine], the EC50 is reported as 100 to 3000 nM. Work on `CCc1nc2ccc(F)cc2n1-c1cc(N)nc(Nc2ccc(C(F)(F)F)cc2)n1` [Cpd 26, 6-(2-ethyl-6-fluoro-1H-benzimidazol-1-yl)-N^2-[4-(trifluoromethyl)phenyl]pyrimidine-2,4-diamine] yielded an EC50 of 10 to 100 nM. Work on `Nc1cc(-n2c(C3CC3)nc3ccc(F)cc32)nc(Nc2ccc(C(F)(F)F)cc2)n1` [Cpd 27, 6-(2-cyclopropyl-6-fluoro-1H-benzimidazol-1-yl)-N^2-[4-(trifluoromethyl)phenyl]pyrimidine-2,4-diamine] yielded an EC50 of 10 to 100 nM. In the case of `Nc1cc(-c2c(CO)nc3ccccn23)nc(Nc2ccc(C(F)(F)F)cc2)n1` [Cpd 28, [3-(6-amino-2-{[4-(trifluoromethyl)phenyl]amino}pyrimidin-4-yl)imidazo[1,2-a]pyridin-2-yl]methanol], the EC50 is reported as 1 to 10 nM. With `Nc1cc(-c2c(CO)nc3ccc(F)cn23)nc(Nc2ccc(C(F)(F)F)cc2)n1` [Cpd 29, [3-(6-amino-2-{[4-(trifluoromethyl)phenyl]amino}pyrimidin-4-yl)-6-fluoroimidazo[1,2-a]pyridin-2-yl]methanol] the EC50 was 10 to 100 nM. Compound `Cc1nc2ccccc2n1-c1cc(Cl)nc(Nc2ccc(OC(F)F)c(F)c2)n1` [Cpd 30, 4-chloro-N-[4-(difluoromethoxy)-3-fluorophenyl]-6-(2-methyl-1H-benzimidazol-1-yl)pyrimidin-2-amine] has an EC50 of 100 to 3000 nM. `Cc1nc2ncc(Cl)cc2n1-c1cc(N)nc(Nc2ccc(C(F)(F)F)cc2)n1` [Cpd 31, 6-(6-chloro-2-methyl-1H-imidazo[4,5-b]pyridin-1-yl)-N^2-[4-(trifluoromethyl)phenyl]pyrimidine-2,4-diamine] showed an EC50 of 1 to 10 nM. `CCc1nc2ncc(Cl)cc2n1-c1cc(N)nc(Nc2ccc(C(F)(F)F)cc2)n1` [Cpd 32, 6-(6-chloro-2-ethyl-1H-imidazo[4,5-b]pyridin-1-yl)-N^2-[4-(trifluoromethyl)phenyl]pyrimidine-2,4-diamine] showed an EC50 of 10 to 100 nM. `Cc1nc2c(F)cc(F)cc2n1-c1cc(N)nc(Nc2ccc(C(F)(F)F)cc2)n1` [Cpd 34, 6-(4,6-difluoro-2-methyl-1H-benzimidazol-1-yl)-N^2-[4-(trifluoromethyl)phenyl]pyrimidine-2,4-diamine] was tested, and the EC50 was 10 to 100 nM.
